Results from patent US11559590B2, “Granzyme B directed imaging and therapy” (The General Hospital Corporation, priority 2016, dated 2023).
Where two headings read alike, the source gives them in different places. Non-standard residues stand in square brackets, D forms with d. Residues, ends and D or L forms follow the SMILES beside them. Primed or numbered codes have the meaning given here. No end group written: not given here. *: point of attachment. X1 = O=C(O)CN1CCN(CC(=O)O)CC(Cc2ccc(NC(=S)*)cc2)N(CC(=O)O)CC1; PEG27′ = polyethylene glycol linker of 27 —(OCH2CH2)— units; Biotin = O=C1N[C@H]2[C@H](CS[C@H]2CCCCC(=O)*)N1; NOTA = O=C(O)CN1CCN(CC(=O)O)CCN(CC(=O)*)CC1; βAla = NCCC(=O)O

Legend:
tumor = settings: mouse, in vivo
Excerpt: Both peptides were designed to test the effects of additional groups on the pharmacokinetics and tumor to background ratios in mice.

human granzyme B [1] = biological target: T1, human granzyme B (Homo sapiens, UniProt P10144); experiment: Immunohistochemistry and immunofluorescence of human melanoma specimens with hGZP; type: binding; settings: treated responder melanoma samples, IHC and immunofluorescence
T1 construct: from tissue; host or cells: formalin-fixed paraffin-embedded human melanoma biopsy sections
T1 sequence (P10144 21-247): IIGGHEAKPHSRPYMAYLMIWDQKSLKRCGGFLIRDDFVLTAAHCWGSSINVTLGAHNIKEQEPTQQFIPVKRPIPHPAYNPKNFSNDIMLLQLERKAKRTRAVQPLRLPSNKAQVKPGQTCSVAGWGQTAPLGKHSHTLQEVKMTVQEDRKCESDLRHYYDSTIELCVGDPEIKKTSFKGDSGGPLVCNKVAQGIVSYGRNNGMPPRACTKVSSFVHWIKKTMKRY
Experimental: Immunohistochemistry was performed on formalin-fixed paraffin-embedded sections following standard antigen retrieval in citrate buffer. Granzyme B expression was detected with either an anti-Granzyme B antibody (ab5049, Abcam) or a biotinylated and humanized version of GZP (hGZP, see Example 1A). Bound antibody was detected with either HRP-conjugated goat anti-rabbit antibody and reacted with DAB substrate for IHC staining or AlexaFluor 488 goat anti-rabbit or AlexaFluor 594 goat anti-rabbit antibodies (Life Technologies) for immunofluorescent visualization. Bound peptide was detected with either HRP-conjugated streptavidin (Abcam) followed by reaction with DAB substrate or Oregon green conjugated neutravidin (Life Technologies). […] Fluorescence quantification was performed using ImageJ software (National Institutes of Health, Bethesda, Md.).
(§1) A cohort of 9 human melanoma biopsy samples obtained from patients treated with anti-PD-1 checkpoint inhibitors (n=6 nivolumab and n=3 pembrolizumab), which were retrospectively correlated with response based on modified RECIST criteria. […] To quantify the degree and magnitude of difference between treated responders and nonresponders, quantitative fluorescent microscopy was performed. […]

CT26 tumors [2] = experiment: Ex vivo tumor to blood ratio by gamma counter in CT26 tumor bearing mice; settings: day 14, 1 h post-injection
Experimental: After confirming the ^68Ga-NOTA-GP bound to purified granzyme B and specifically accumulated in target cells, the in vivo tumor accumulation was investigated in CT26 tumor bearing mice using the same model used to generate the Western blot data from Example 2 (see FIG. 1). On day 14 post-inoculation, mice were injected with […] of ^68Ga-NOTA-GP and mice were sacrificed at 1 h following injection. Tumors and blood were collected from 7 mice that were treated with combination therapy (ant-PD-1 and CTLA-4). The tumors were grouped based on size as either responders (mass<[…]) or non-responders (mass≥[…]) The amount of radioactive ^68Ga-NOTA-GP in both the tumor and blood were quantified using a gamma counter and the adjusted based on mass and the ratio of injected dose per gram of tumor to blood (TBR) was plotted for tumors in each group.

granzyme B [3] = biological target: T2, granzyme B (Mus musculus, UniProt P04187); experiment: Response prediction using granzyme B PET imaging across CT26 and MC38 models; type: in vivo, mice; parameters: from tissue; host or cells: CT26 (BALB/C) and MC38 syngeneic tumours in living mice; granzyme B from infiltrating host lymphocytes; settings: CT26 and MC38, all therapies
T2 sequence (P04187 21-247): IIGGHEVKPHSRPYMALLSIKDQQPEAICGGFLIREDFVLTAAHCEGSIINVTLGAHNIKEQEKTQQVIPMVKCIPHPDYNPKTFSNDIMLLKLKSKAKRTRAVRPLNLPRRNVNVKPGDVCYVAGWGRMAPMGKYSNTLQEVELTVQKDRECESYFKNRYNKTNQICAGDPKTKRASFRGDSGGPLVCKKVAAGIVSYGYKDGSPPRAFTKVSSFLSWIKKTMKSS
Excerpt: As a measure of the accuracy of granzyme B PET (i.e., GZP PET) imaging-based response prediction across multiple tumor models and therapies described in Examples 9-11, classifications of uptake using TBR thresholds of 1.27 for CT26 tumors and 1.45 for MC38 tumors were utilized. […] This reflects an overall sensitivity and specificity of 93% and 89% respectively for the ability of ^68Ga-GZP PET to predict immunotherapy response.

granzyme B [4] = biological target: T2, granzyme B; type: in vivo, mice; parameters: from tissue; host or cells: CT26 (BALB/C) and MC38 syngeneic tumours in living mice; granzyme B from infiltrating host lymphocytes
Experimental: For imaging studies, mice were treated with intraperitoneal injection of either vehicle, 200 μg anti-PD-1 murine therapeutic antibody (αPD1), or both 200 μg αPD1 and 100 μg anti-CTLA-4 murine therapeutic antibody (αCTLA-4) on days 3, 6, and 9 following CT-26 tumor inoculation. 1×10^6 BP cells were diluted 1:1 with Matrigel and injected in the right shoulder of female C57BL/6 mice. Once tumors had reached 3-5 mm in diameter, mice were treated with daily oral gavage of vehicle or dabrafenib prepared in aqueous suspension with 0.5% hydroxypropylmethyl cellulose (HPMC) and 0.2% Tween. One day following initiation of BRAF inhibition, mice were additionally randomized to intraperitoneal injection with 200 μg αPD1 as specified. Mice were sacrificed on specified day either for Western blot and immunohistochemistry alone, or following imaging for correlative analysis. Mice were imaged on a GE Triumph PET/CT. Following CT acquisition, PET images were obtained for 15 min in 2 bed positions. Images were constructed using 3D-OSEM (4 iterations, 16 subsets) and corrected for scatter and randoms. The mean standard uptake value (SUVmean) for each tumor was calculated in a 3D region of interest auto-drawn around the tumor using a 30% isocontour threshold. Region of interests were also calculated for left ventricle, liver lung, muscle, and kidney. Images were post-processed using VivoQuant (InviCRO, Boston, Mass.). On day 14 post-inoculation, mice were injected with ˜37 MBq of purified ^68Ga-NOTA-GP intravenously and imaged at 1 h post-injection. […] The mean TBR of treated mice was calculated at 1.69±0.26, whereas the mean TBR of untreated mice was 0.93±0.11, a significant increase (83%, P<0.05) from untreated to treated mice, as shown in FIG. 11. ^68Ga-NOTA-GP uptake was observed across both treated and untreated tumors.

CT26 cells = experiment: Binding of ^68Ga-NOTA-GP to CT26 cells with or without pre-incubation with granzyme B; type: cell-based; settings: 100 μCi/mL, pre-incubated with granzyme B (60 nM) or vehicle, 30 min
Experimental: CT26 cells were plated in 96 well plates and grown to 70% confluency. ^68Ga-NOTA-GP was diluted to 100 μCi/mL in 1% BSA plus RPMI buffer and either pre-incubated with granzyme B (60 nM) or vehicle prior to addition to wells. The peptide was incubated with cells for 30 min prior to washing and elution with 2M NaOH.

granzyme B [5] = biological target: T2, granzyme B; experiment: Binding of ^68Ga-NOTA-GP to purified granzyme B adsorbed to plates vs BSA; parameters: purchased R&D systems; settings: 1 h binding, bound tracer counted by gamma counter, 6 replicates
Experimental: Granzyme B was adsorbed to plates and the plates were blocked with non-fat milk. The ^68Ga-NOTA-GP was permitted to bind for 1 h, the wells washed, and bound ^68Ga-NOTA-GP recovered by incubation with 2N NaOH and counted by gamma counter. […] The bars in FIG. 4 represent the mean of 6 replicates±SD.

[6] = Ex vivo bio-distribution at 1 h and 2 h post-injection; type: in vivo, mice; settings: mouse, tumor, iv, 1 mCi, total radioactivity; for tissue uptake at 1 h: 1 h post-injection; for tissue uptake at 2 h: 2 h post-injection
Experimental: (§2) Following injection with ˜1 mCi of ^68Ga-NOTA-GP (see Example 1) via tail-vein mice were sacrificed at either one-hour or two-hour time-points. Mouse urine, blood, tumor, and vital organs were sampled, and radioactivity assessed on a gamma-counter.
(§3) Following imaging, mice were sacrificed and tumoral GZB expression quantified by Western blot. […] Tumoral uptake of treated tumors was measured at 1.15% ID/g at 1 h and 1.02% ID/g at 2 h in comparison to 0.70 and 0.55% ID/g in untreated control tumors, as shown in FIG. 7B.

CT26 tumors [7] = experiment: as above; type: in vivo, mice; settings: 1 h and 2 h post-injection
Experimental: as §2, §3

human granzyme B [8] = biological target: T3, human granzyme B (human, UniProt P10144 21-247); experiment: immunohistochemistry and immunofluorescence on human melanoma sections, compared with anti-granzyme B antibody
T3 construct: Endogenous protein in tissue sections, not purified; also called granzyme B in human melanoma tissue
T3 sequence (P10144 21-247 limits assumed): as the sequence (P10144 21-247) above
Experimental: Immunohistochemistry was performed on formalin-fixed paraffin-embedded sections following standard antigen retrieval in citrate buffer. Granzyme B expression was detected with either an anti-Granzyme B antibody (ab5049, Abcam) or a biotinylated and humanized version of GZP (hGZP, see Example 1A). Bound antibody was detected with either HRP-conjugated goat anti-rabbit antibody and reacted with DAB substrate for IHC staining or AlexaFluor 488 goat anti-rabbit or AlexaFluor 594 goat anti-rabbit antibodies (Life Technologies) for immunofluorescent visualization.
Bound peptide was detected with either HRP-conjugated streptavidin (Abcam) followed by reaction with DAB substrate or Oregon green conjugated neutravidin (Life Technologies). […] Fluorescence quantification was performed using ImageJ software (National Institutes of Health, Bethesda, Md.).
as §1

[9] = biological target: Granzyme B (purified, R&D Systems); experiment: in vitro granzyme B enzyme activity inhibition (cleavage of BOC-Ala-Ala-Asp-SBZL, absorbance at 405 nm)

NOTA-beta A-G-G-G-T-E-A-A-A-A-S-S-C-F-I-E-F-D-CHO ({NOTA}-[βAla]GGGTEAAAASSCFIEFD-aldehyde; SMILES CC[C@H](C)[C@H](NC(=O)[C@H](Cc1ccccc1)NC(=O)[C@H](CS)NC(=O)[C@H](CO)NC(=O)[C@H](CO)NC(=O)[C@H](C)NC(=O)[C@H](C)NC(=O)[C@H](C)NC(=O)[C@H](C)NC(=O)[C@H](CCC(=O)O)NC(=O)[C@@H](NC(=O)CNC(=O)CNC(=O)CNC(=O)CCNC(=O)CN1CCN(CC(=O)O)CCN(CC(=O)O)CC1)[C@@H](C)O)C(=O)N[C@@H](CCC(=O)O)C(=O)N[C@@H](Cc1ccccc1)C(=O)N[C@H](C=O)CC(=O)O) [GZPSERP]
aggregation and liver uptake (tumor): significant aggregation and high liver uptake
tumor to background ratios (tumor): much lower tumor to background ratios

NOTA-beta A-PEG27-G-G-G-I-E-F-D ({NOTA-βAla-PEG27′}-GGGIEFD) [GZPPEG]
tumor uptake kinetics (tumor): almost identical tumor uptake kinetics to NOTA-GP

{Biotin-βAla}-GGGIEPD-aldehyde [hGZP]
binding to granzyme B in human tissue compared with anti-granzyme B antibody (human granzyme B [1]): highly specific binding of hGZP to human granzyme B

CCC(C)C(NC(=O)CNC(=O)CNC(=O)CNC(=S)Nc1ccc(CC2CN(CC(=O)O)CCN(CC(=O)O)CCN2CC(=O)O)cc1)C(=O)NC(CCC(=O)O)C(=O)NC(Cc1ccccc1)C(=O)NC(C=O)CC(=O)O (stereo not drawn) [^68Ga-NOTA-GP, metal not drawn] (X1-GGGIEFD-aldehyde; configuration not given here)
tumor to blood ratio (TBR), injected dose per gram, responders (CT26 tumors [2]; combination therapy (anti-PD-1 and CTLA-4) treated mice, responders (mass<0.8 mg)): 6.06-13.74
tumor to blood ratio (TBR), injected dose per gram, non-responders (CT26 tumors [2]; combination therapy treated mice, non-responders (mass≥0.8 mg)): 0.95-2.48
overall sensitivity to predict immunotherapy response (granzyme B [3]; 25 of 27 responding mice high-uptake): 93%
overall specificity to predict immunotherapy response (granzyme B [3]; 34 of 38 non-responding mice low-uptake): 89%
correlation of TBR with tumoral GZB expression (Western blot) (granzyme B [4]; P<0.001): significant correlation between uptake and GZB expression
increase of mean TBR from untreated to treated mice (granzyme B [4]; mouse, in vivo): 83%
mean TBR (tumor to left ventricle) by PET, treated mice (granzyme B [4]; mouse, in vivo): 1.69±0.26
mean TBR (tumor to left ventricle) by PET, untreated mice (granzyme B [4]; mouse, in vivo): 0.93±0.11
binding/uptake in CT26 cells (CT26 cells): binds granzyme B and is taken up specifically by cancer cells
binding to granzyme B compared to control protein (BSA) (granzyme B [5]): significantly (P<0.05) higher binding to granzyme B than to the control protein (BSA)
tissue uptake at 1 h ([6]; treated tumors, read-out: tumoral uptake, treated tumors, 1 h): 1.15 %ID/g
tissue uptake at 2 h ([6]; treated tumors, read-out: tumoral uptake, treated tumors, 2 h): 1.02 %ID/g
tissue uptake at 1 h ([6]; untreated control tumors, read-out: tumoral uptake, untreated control tumors, 1 h): 0.7 %ID/g
tissue uptake at 2 h ([6]; untreated control tumors, read-out: tumoral uptake, untreated control tumors, 2 h): 0.55 %ID/g
clearance (CT26 tumors [7]): rapid renal clearance

B1: Biotin-beta-Ala-Gly-Gly-Gly-Ile-Glu-Pro-Asp-CHO (peptide)
peptide: Biotin-[βAla]GGGIEPD-aldehyde
SMILES: CC[C@H](C)[C@H](NC(=O)CNC(=O)CNC(=O)CNC(=O)CCNC(=O)CCCC[C@@H]1SC[C@@H]2NC(=O)N[C@@H]21)C(=O)N[C@@H](CCC(=O)O)C(=O)N1CCC[C@H]1C(=O)N[C@H](C=O)CC(=O)O
notes: also called hGZP; biotinylated human granzyme B peptide
binding result (human granzyme B [8]): binds

{NOTA}-[βAla]GGIEFD-aldehyde (also: NOTA complexed with nonradioactive gallium) [NOTA-beta-Ala-Gly-Gly-Ile-Glu-Phe-Asp-CHO (nonradioactive gallium-labeled)]
Ki [9]: 0.047 µM
